Data from the supplement of paper PMC11451515.

Columns and labels:
Details in all cases: 48 h
SEM cells [1] = test: cell viability relative to DMSO control; higher = less cytotoxic
Method in brief: (§1)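 Viability, reported as a per-plate percentage of DMSO wells with cell-free wells as background, came from CellTiter-Glo One luminescence. Reading took place after 48 h at 37°C. Before that, NOMO1 or SEM (500 cells/well) or P12-Ichikawa (1000 cells/well) leukemia cells, adapted for at least four passages in each medium, were seeded in 1536-well plates (5 μl) and pin-dosed with library compounds in DMSO, 47 μM to 0.79 nM over 11 threefold points.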

P12-Ichikawa [2] = test: as above
Method in brief: as §1

NOMO1 [3] = test: as above
Method in brief: as §1

SEM cells [4] = test: AUC of viability dose-response curve (% viability x log10 dose units); higher = less sensitive
Method in brief: (§2)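 Over 48 h at 37°C, leukemia cells in 1536-well plates (500 or 1000 cells/well), adapted to each medium, received library compounds in DMSO at 11 threefold doses from 47 μM to 0.79 nM. CellTiter-Glo One luminescence, normalised per plate to DMSO and cell-free wells, was fitted by a four-parameter log-logistic function of log10 dose. The area under the curve was then integrated by trapezoidal rule, after scaling curves above full viability and removing those that failed quality control.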

P12-Ichikawa [5] = test: as above
Method in brief: as §2

NOMO1 [6] = test: as above
Method in brief: as §2

ClC1=CC=C(C=C1)C(C#N)C2=C(Cl)C=C(C=C2Cl)N3\N=C/C(=O)NC3=O (stereo not drawn)
cell viability [%]
Details	NOMO1 [3]	P12-Ichikawa [2]	SEM cells [1]
HPLM + 10% dialyzed FBS, 0.000781 µM	82.4	110	87.4
HPLM + 10% dialyzed FBS, 0.00234 µM	101	106	43.9
HPLM + 10% dialyzed FBS, 0.00702 µM	99.5	106	104
HPLM + 10% dialyzed FBS, 0.0211 µM	111	110	83.7
HPLM + 10% dialyzed FBS, 0.0632 µM	112	110	91.8
HPLM + 10% dialyzed FBS, 0.19 µM	103	115	94.8
HPLM + 10% dialyzed FBS, 0.569 µM	125	104	91.3
HPLM + 10% dialyzed FBS, 1.71 µM	104	110	93.9
HPLM + 10% dialyzed FBS, 5.12 µM	97.8	104	86.4
HPLM + 10% dialyzed FBS, 15.4 µM	102	86.3	91.6
HPLM + 10% dialyzed FBS, 46.1 µM	107	86.4	107
RPMI 5 mM glucose + 10% FBS, 0.000781 µM	100	91	90.6
RPMI 5 mM glucose + 10% FBS, 0.00234 µM	93.4	94.7	47.9
RPMI 5 mM glucose + 10% FBS, 0.00702 µM	109	93.7	96.6
RPMI 5 mM glucose + 10% FBS, 0.0211 µM	102	94.7	92.5
RPMI 5 mM glucose + 10% FBS, 0.0632 µM	93.1	93.8	87.1
RPMI 5 mM glucose + 10% FBS, 0.19 µM	94.6	101	98.4
RPMI 5 mM glucose + 10% FBS, 0.569 µM	114	106	90.1
RPMI 5 mM glucose + 10% FBS, 1.71 µM	107	98.7	90.2
RPMI 5 mM glucose + 10% FBS, 5.12 µM	106	101	96.3
RPMI 5 mM glucose + 10% FBS, 15.4 µM	100	85.1	82.3
RPMI 5 mM glucose + 10% FBS, 46.1 µM	104	82.2	76.7
RPMI 5 mM glucose + 10% dialyzed FBS, 0.000781 µM	80.1	95.7	93.1
RPMI 5 mM glucose + 10% dialyzed FBS, 0.00234 µM	92.6	99.3	42.5
RPMI 5 mM glucose + 10% dialyzed FBS, 0.00702 µM	86.5	104	99.2
RPMI 5 mM glucose + 10% dialyzed FBS, 0.0211 µM	95.3	100	100
RPMI 5 mM glucose + 10% dialyzed FBS, 0.0632 µM	87.1	105	106
RPMI 5 mM glucose + 10% dialyzed FBS, 0.19 µM	110	102	119
RPMI 5 mM glucose + 10% dialyzed FBS, 0.569 µM	99.6	93.7	104
RPMI 5 mM glucose + 10% dialyzed FBS, 1.71 µM	96.7	108	94.6
RPMI 5 mM glucose + 10% dialyzed FBS, 5.12 µM	94.6	96.3	109
RPMI 5 mM glucose + 10% dialyzed FBS, 15.4 µM	103	79.6	95.8
RPMI 5 mM glucose + 10% dialyzed FBS, 46.1 µM	98.4	76	89.7

AUC of viability dose-response curve
Details	NOMO1 [6]	P12-Ichikawa [5]	SEM cells [4]
HPLM + 10% dialyzed FBS	453	460	428
RPMI 5 mM glucose + 10% FBS	458	454	415
RPMI 5 mM glucose + 10% dialyzed FBS	455	459	451

CCCCC(=O)O[C@]1(C(=O)CO)[C@H](C)C[C@H]2[C@@H]3CCC4=CC(=O)C=C[C@]4(C)[C@@]3(F)[C@@H](O)C[C@@]21C
cell viability [%]
Details	NOMO1 [3]	SEM cells [1]
HPLM + 10% dialyzed FBS, 0.000781 µM	122	102
HPLM + 10% dialyzed FBS, 0.00234 µM	129	122
HPLM + 10% dialyzed FBS, 0.00702 µM	124	111
HPLM + 10% dialyzed FBS, 0.0211 µM	135	96.2
HPLM + 10% dialyzed FBS, 0.0632 µM	131	92.6
HPLM + 10% dialyzed FBS, 0.19 µM	124	87.1
HPLM + 10% dialyzed FBS, 0.569 µM	127	83.4
HPLM + 10% dialyzed FBS, 1.71 µM	122	75.2
HPLM + 10% dialyzed FBS, 5.12 µM	123	71
HPLM + 10% dialyzed FBS, 15.4 µM	123	71.4
HPLM + 10% dialyzed FBS, 46.1 µM	116	70.9
RPMI 5 mM glucose + 10% FBS, 0.000781 µM	–	118
RPMI 5 mM glucose + 10% FBS, 0.00234 µM	–	124
RPMI 5 mM glucose + 10% FBS, 0.00702 µM	–	139
RPMI 5 mM glucose + 10% FBS, 0.0211 µM	–	124
RPMI 5 mM glucose + 10% FBS, 0.0632 µM	–	91.3
RPMI 5 mM glucose + 10% FBS, 0.19 µM	–	98.2
RPMI 5 mM glucose + 10% FBS, 0.569 µM	–	84.3
RPMI 5 mM glucose + 10% FBS, 1.71 µM	–	73.9
RPMI 5 mM glucose + 10% FBS, 5.12 µM	–	76.7
RPMI 5 mM glucose + 10% FBS, 15.4 µM	–	70.3
RPMI 5 mM glucose + 10% FBS, 46.1 µM	–	67.6

AUC of viability dose-response curve
Details	NOMO1 [6]	P12-Ichikawa [5]	SEM cells [4]
HPLM + 10% dialyzed FBS	467	372	378
RPMI 5 mM glucose + 10% FBS	474	315	362
RPMI 5 mM glucose + 10% dialyzed FBS	472	292	350

CNC(=O)c1ccc2cc(C3(O)CCn4cncc43)ccc2c1 (stereo not drawn)
cell viability [%]
Details	NOMO1 [3]	P12-Ichikawa [2]	SEM cells [1]
HPLM + 10% dialyzed FBS, 0.000781 µM	124	123	128
HPLM + 10% dialyzed FBS, 0.00234 µM	131	127	119
HPLM + 10% dialyzed FBS, 0.00702 µM	121	115	103
HPLM + 10% dialyzed FBS, 0.0211 µM	127	115	125
HPLM + 10% dialyzed FBS, 0.0632 µM	143	119	125
HPLM + 10% dialyzed FBS, 0.19 µM	118	123	113
HPLM + 10% dialyzed FBS, 0.569 µM	126	102	108
HPLM + 10% dialyzed FBS, 1.71 µM	137	102	107
HPLM + 10% dialyzed FBS, 5.12 µM	113	108	106
HPLM + 10% dialyzed FBS, 15.4 µM	98.1	108	123
HPLM + 10% dialyzed FBS, 46.1 µM	112	114	107
RPMI 5 mM glucose + 10% FBS, 0.000781 µM	105	123	–
RPMI 5 mM glucose + 10% FBS, 0.00234 µM	117	127	–
RPMI 5 mM glucose + 10% FBS, 0.00702 µM	103	119	–
RPMI 5 mM glucose + 10% FBS, 0.0211 µM	120	127	–
RPMI 5 mM glucose + 10% FBS, 0.0632 µM	110	131	–
RPMI 5 mM glucose + 10% FBS, 0.19 µM	96.8	125	–
RPMI 5 mM glucose + 10% FBS, 0.569 µM	102	129	–
RPMI 5 mM glucose + 10% FBS, 1.71 µM	96.8	122	–
RPMI 5 mM glucose + 10% FBS, 5.12 µM	108	111	–
RPMI 5 mM glucose + 10% FBS, 15.4 µM	99.7	133	–
RPMI 5 mM glucose + 10% FBS, 46.1 µM	114	110	–
RPMI 5 mM glucose + 10% dialyzed FBS, 0.000781 µM	–	126	–
RPMI 5 mM glucose + 10% dialyzed FBS, 0.00234 µM	–	117	–
RPMI 5 mM glucose + 10% dialyzed FBS, 0.00702 µM	–	121	–
RPMI 5 mM glucose + 10% dialyzed FBS, 0.0211 µM	–	125	–
RPMI 5 mM glucose + 10% dialyzed FBS, 0.0632 µM	–	118	–
RPMI 5 mM glucose + 10% dialyzed FBS, 0.19 µM	–	120	–
RPMI 5 mM glucose + 10% dialyzed FBS, 0.569 µM	–	110	–
RPMI 5 mM glucose + 10% dialyzed FBS, 1.71 µM	–	117	–
RPMI 5 mM glucose + 10% dialyzed FBS, 5.12 µM	–	107	–
RPMI 5 mM glucose + 10% dialyzed FBS, 15.4 µM	–	118	–
RPMI 5 mM glucose + 10% dialyzed FBS, 46.1 µM	–	105	–

AUC of viability dose-response curve
Details	NOMO1 [6]	P12-Ichikawa [5]	SEM cells [4]
HPLM + 10% dialyzed FBS	458	453	441
RPMI 5 mM glucose + 10% FBS	456	469	450
RPMI 5 mM glucose + 10% dialyzed FBS	456	453	452

COc1cc(F)c(F)c(Nc2ccc(I)cc2F)c1N[S+](=O)([O-])C1(C[C@H](O)CO)CC1
cell viability [%]
Details	NOMO1 [3]	P12-Ichikawa [2]	SEM cells [1]
HPLM + 10% dialyzed FBS, 0.000781 µM	111	114	102
HPLM + 10% dialyzed FBS, 0.00234 µM	119	107	108
HPLM + 10% dialyzed FBS, 0.00702 µM	117	110	122
HPLM + 10% dialyzed FBS, 0.0211 µM	113	116	106
HPLM + 10% dialyzed FBS, 0.0632 µM	116	111	111
HPLM + 10% dialyzed FBS, 0.19 µM	113	112	103
HPLM + 10% dialyzed FBS, 0.569 µM	101	110	105
HPLM + 10% dialyzed FBS, 1.71 µM	113	108	89.9
HPLM + 10% dialyzed FBS, 5.12 µM	99.3	106	117
HPLM + 10% dialyzed FBS, 15.4 µM	91.8	89	104
HPLM + 10% dialyzed FBS, 46.1 µM	57	42.7	60.2
RPMI 5 mM glucose + 10% FBS, 0.000781 µM	104	110	111
RPMI 5 mM glucose + 10% FBS, 0.00234 µM	95.3	123	109
RPMI 5 mM glucose + 10% FBS, 0.00702 µM	94.9	128	121
RPMI 5 mM glucose + 10% FBS, 0.0211 µM	99.4	113	112
RPMI 5 mM glucose + 10% FBS, 0.0632 µM	99.5	112	119
RPMI 5 mM glucose + 10% FBS, 0.19 µM	102	104	126
RPMI 5 mM glucose + 10% FBS, 0.569 µM	92.5	115	97.9
RPMI 5 mM glucose + 10% FBS, 1.71 µM	111	118	120
RPMI 5 mM glucose + 10% FBS, 5.12 µM	93.2	115	109
RPMI 5 mM glucose + 10% FBS, 15.4 µM	87.9	96.4	83.6
RPMI 5 mM glucose + 10% FBS, 46.1 µM	86.5	74.8	15.3
RPMI 5 mM glucose + 10% dialyzed FBS, 0.000781 µM	112	123	110
RPMI 5 mM glucose + 10% dialyzed FBS, 0.00234 µM	110	120	105
RPMI 5 mM glucose + 10% dialyzed FBS, 0.00702 µM	109	126	115
RPMI 5 mM glucose + 10% dialyzed FBS, 0.0211 µM	115	118	115
RPMI 5 mM glucose + 10% dialyzed FBS, 0.0632 µM	108	116	112
RPMI 5 mM glucose + 10% dialyzed FBS, 0.19 µM	106	104	117
RPMI 5 mM glucose + 10% dialyzed FBS, 0.569 µM	110	118	104
RPMI 5 mM glucose + 10% dialyzed FBS, 1.71 µM	122	122	102
RPMI 5 mM glucose + 10% dialyzed FBS, 5.12 µM	106	123	106
RPMI 5 mM glucose + 10% dialyzed FBS, 15.4 µM	88.8	97.3	103
RPMI 5 mM glucose + 10% dialyzed FBS, 46.1 µM	71.9	58.2	50.4

AUC of viability dose-response curve
Details	NOMO1 [6]	P12-Ichikawa [5]	SEM cells [4]
HPLM + 10% dialyzed FBS	449	450	465
RPMI 5 mM glucose + 10% FBS	455	461	443
RPMI 5 mM glucose + 10% dialyzed FBS	457	456	461
